In US10045966B2, “Compositions and methods for treating microbial infections” (Vanderbilt Univeristy, priority 2012, dated 2018):
Entries after “also recorded” stand apart in the source; their conditions may differ.

Experiments:
[1] = test system: HssRS; assay: XylE reporter assay (hrtAB promoter-xylE fusion) for HssRS activation; type: cell-based, S. aureus; conditions: for HssRS activation (XylE reporter activity): S. aureus carrying phrt.xylE; for HssRS activation in heme auxotroph ΔhemB: S. aureus hemB::ermC (ΔhemB) carrying phrt.xylE
Procedure: (§1) FIGS. 9A-9C describe a high throughput screen that identifies small molecule activators of HssRS. (A) A secondary screen consisting of a XylE reporter assay verified the activity of the top 110 hits from the primary screen, including '882. Triplicate cultures of S. aureus WT and ΔhssR transformed with the hrtAB promoter-xylE fusion-containing plasmid (phrt.xylE) were grown in the presence of the indicated additive and XylE activity was measured. (B) The structure of lead compound VU0038882 (′882). (C) '882 was confirmed as a hit in a tertiary screen that measured the ability of the compound to pre-adapt S. aureus for growth in 20 μM heme. Triplicate cultures of WT S. aureus were grown overnight in medium containing the indicated additive and sub-cultured into medium containing 20 μM heme. Growth was monitored by measuring the optical density at 600 nm (OD600) over time. (A and C) Error bars represent one standard deviation from the mean.
The present inventors designed and conducted a screening assay to identify activators of HssRS. With reference to FIG. 2A, a reporter plasmid containing the luxABCDE operon from Photorhabdus luminescens driven by the hrtAB promoter (phrt.lux) was used to screen 160,000 compounds from the VICB small molecule library with luminescence. With reference to FIG. 2B, 110 of the top hits from the primary screen were confirmed in a secondary screen using a xylE reporter gene driven by the hrtAB promoter (phrt.xylE). […] Activation of HssRS by a sub-toxic concentration of heme protects S. aureus from a subsequent toxic concentration of heme by upregulating HrtAB. The inhibition of growth due to heme toxicity is determined by measuring the optical density of bacterial cultures at 600 nm. In each screen the present inventors identified hits by comparing their activity to that of heme. […] Cultures of wildtype and ΔhssR carrying phrt.xylE were assayed for XylE activity upon '8882 treatment. The screening method designed by the present inventors as able to successfully identify small molecule activators of the S. aureus heme stress response.
Analogs of '882 were divided into two classes, and chemical modifications of both the Western-naphthol ring and the Eastern-furan ring were conducted. Each set was screened against the XylE assay with heme and '882 as standards for comparison. […] Examples of synthesized compounds and their activity classifications are shown above.

[2] = test system: S. aureus; assay: Pre-adaptation for heme toxicity, growth curve analysis; type: cell-based; conditions: overnight pre-treatment, subculture into 20 μM heme
Procedure: as §1, with “(A and C) Error bars represent one standard deviation from the mean.” left out
The present inventors designed and conducted a screening assay to identify activators of HssRS. With reference to FIG. 2A, a reporter plasmid containing the luxABCDE operon from Photorhabdus luminescens driven by the hrtAB promoter (phrt.lux) was used to screen 160,000 compounds from the VICB small molecule library with luminescence. […] The inhibition of growth due to heme toxicity is determined by measuring the optical density of bacterial cultures at 600 nm. […]

[3] = test system: S. aureus; type: cell-based; conditions: for Growth of ΔmenB (cannot respire, solely ferments): S. aureus ΔmenB, aerobic and anaerobic
[4] = test system: S. aureus; assay: Systemic staphylococcal infection in mice, liver CFUs and abscesses; type: in vivo; conditions: mice infected intravenously, intraperitoneal treatment, 96 h
Procedure: FIGS. 16A-16D show embodiments of the preset invention reduce S. aureus pathogenesis in vivo. Mice infected retroorbitally with S. aureus were treated intraperitoneally with vehicle (10% Tween 80) or '373. After 96 h mice were sacrificed and (A) CFUs and (B) surface abscesses were enumerated from the livers. Each marker represents an individual mouse. Data were collected from three independent experiments resulting in n=13 for vehicle and n=12 for '373-treated mice once the highest and lowest values were removed from each group. The horizontal line indicates the mean and the error bars represent the standard error of the mean. Statistical significance was determined by a two-tailed Student's t-test. Livers from mice treated with the indicated dose of '373 were harvested 24 h post-infection (1 h after the 2nd treatment), sectioned, and mounted on MALDI target plates (C). (D) Tissue sections were imaged by MALDI-MS/MS for accumulation of a fragment of '373 by MALDI-MS/MS (m/z 255.2→134). Spectra were acquired at 10 microscans per step. 5 laser shots were acquired per pixel and pixels were obtained every 100 μm.

[5] = Liver tissue level by Imaging Mass Spectrometry and HPLC-MS; conditions: HPLC-MS of excised liver, 24 h post-infection
[6] = test system: Corynebacterium diphtheriae; assay: Adaptation to heme toxicity, CFU enumeration; type: cell-based; conditions: C. diphtheriae, subculture into 15 μM heme, versus non-adapted cultures
[7] = test system: Staphylococcus haemolyticus; assay: Adaptation to heme toxicity, growth curve; type: cell-based; conditions: S. haemolyticus, subculture into 30 μM heme, versus non-adapted cultures
[8] = test system: intracellular heme; assay: Intracellular heme quantification; type: cell-based, S. aureus; conditions: for Intracellular (endogenous) heme levels: pyridine hemochromogen assay / UPLC-MS
Procedure: (B) Heme levels in triplicate cultures of S. aureus treated with the indicated additive were quantified using the pyridine hemochromogen assay and normalized to the concentration of protein in the whole cell lysates. […] (A and B) Error bars represent one standard deviation from the mean. (C) Exact-mass mass spectrometric analysis was used in conjunction with UPLC to detect and quantify heme in protoplasts from cells treated with 40 μM '882 or vehicle grown in triplicate. Measured heme molecules were referenced to estimated CFUs per pellet, factoring in dilutions. Dead or lysed cells would also contribute to the measurement. […] Samples measured in duplicate or triplicate injections had typical errors of <5% between analytical replicates. Error bars represent the standard deviation and significance was calculated using a two-tailed Student's t-test.
Heme levels were quantified using the pyridine hemochromogen assay and normalized to the concentration of protein in the whole cell lysates.
To directly test if '882 exposure increases heme levels within staphylococci, intracellular heme abundance was measured using two distinct approaches. First, intracellular heme levels were quantified using a commercially available heme quantification kit (BioAssay systems).

[9] = test system: IsdG; assay: IsdG abundance by immunoblot as reporter of cytoplasmic heme; type: cell-based, S. aureus
Procedure: Wild type and ΔhemV S. aureus transformed with isdG driven under the constitutive Igt promoter (pIgt.isdG) were grown in the presence of increasing concentrations of '8882. Whole cell lysates, along with a protein standard, were blotted with anti IsdG polyclonal antisera and IsdG levels were quantified by densitometry.
Second, the intracellular abundance of the heme stabilized protein IsdG was used as a barometer of functional cytoplasmic heme levels (43), i.e., IsdG is a heme stabilized protein that can be used as a reporter for intracellular heme levels. With reference to FIG. 4A, S. aureus ΔisdG and ΔhemB were transformed with a plasmid that constitutively expresses IsdG (plgt.isdG). These strains were grown to stationary phase in the presence of the indicated concentration of '8882 or heme. Whole cell lysates were immunoblotted with anti-IsdG polyclonal antisera and bands were quantified using densitometry.
To determine if the endogenous heme produced as a result of '882 exposure is available for use in cellular processes, cytoplasmic heme availability was measured by quantifying intracellular levels of the cytoplasmic heme oxygenase IsdG. In the absence of exogenous heme, IsdG is rapidly degraded; however, heme binding stabilizes IsdG and reduces its proteolytic degradation. Therefore, the abundance of IsdG reflects the cytoplasmic levels of heme.

[10] = test system: C. diphtheriae; assay: Growth of C. diphtheriae; type: cell-based
[11] = test system: S. aureus; assay: Fermentative activity: pH, D-glucose and lactate in culture supernatants; type: cell-based; conditions: aerobic cultures
Procedure: FIGS. 12A-12C show examples of the present invention diminish fermentative activity. S. aureus was grown in triplicate under aerobic conditions in the presence of vehicle (black lines) or 40 μM '882 (gray lines). At the indicated time intervals, culture supernatants were sampled and the (A) pH, (B) D-glucose, and (C) D- and L-lactate were quantified. Error bars represent one standard deviation from the mean.
(§2) The effects of '8882 on fermentation was studied. With reference to FIG. 7A, S. aureus was grown in the presence of the indicated concentration of '8882 or cyanide. Growth was monitored over time by measuring the optical density at 600 nm and normalized to vehicle treated S. aureus. With reference to FIG. 7B, the concentration of glucose and lactate was measured in supernatants collected from S. aureus cultures containing vehicle or '8882. With reference to FIG. 7C, S. aureus grown in the presence or absence of '8882 was subjected to nitric oxide stress after 5 hours of growth. With reference to FIG. 7D, S. aureus was incubated with murine neutrophils in media containing either vehicle or '8882. Bacterial viability was determined by enumerating colony forming units on solid media.

[12] = test system: S. aureus; type: cell-based; conditions: 24 h; for Viable and gentamicin-resistant bacteria, single agent: treatment alone
Procedure: (A) S. aureus wildtype (WT, dashed lines), the menaquinone auxotroph (ΔmenB, dotted lines), and the heme auxotroph hemB::ermC (ΔhemB, solid lines) were grown in triplicate under aerobic (aer, black lines) and anaerobic (ana, gray lines) conditions in the presence of the indicated log of the concentration of '882 (μM). After 18 h the absorbance at 600 nm (OD600) was measured and normalized to vehicle (DMSO) treated bacteria. Curves were fit by nonlinear regression analysis and absolute log IC50 values were calculated in Prism with the top set at 1.0 and the bottom set at 0.15. […] Error bars represent the standard error of the mean. (B) Triplicate cultures of S. aureus were grown in the presence of the indicated additive. […] Shown is the average of three independent experiments. Error bars represent one standard deviation from the mean. (C) S. aureus was grown in the presence of vehicle (DMSO) or 40 μM '882 and coated in serum. Murine PMNs were elicited with casein and harvested from the peritoneum. The ability of neutrophils to kill S. aureus in the presence of '882 was assessed by comparing CFUs recovered from neutrophil-exposed S. aureus to those recovered from identical conditions lacking neutrophils. The mean of at least six independent experiments performed in triplicate are represented by the data; error bars represent standard error of the mean and significance was determined by a two-tailed Student's t-test.
S. aureus SCVs are obligate fermenters that emerge in response to aminoglycoside treatment. […] To test this, S. aureus was grown in the presence of vehicle, gentamicin, '882, or a combination of gentamicin and '882, and the evolution of gentamicin resistance was monitored.

[13] = test system: S. aureus Newman; assay: Co-treatment with kanamycin, CFU enumeration after 24 h; type: cell-based; conditions: TSB
Procedure: With reference to FIG. 8A, S. aureus Newman was cultured in TSB containing the indicated amount of kanamycin or '8882. After 24 h colony forming units (CFUs) were enumerated on solid medium. The dashed line indicates the limit of detection (LOD) and the asterisk denotes that two of the three replicates were below the LOD. Turning to FIG. 8B, 50 ul of each experimental groups was plated on TSA at a dilution of 1:100 except for the co-treatment group, which was plated undiluted. Two of the three co-treated replicates had no viable colonies.

[14] = test system: S. aureus; assay: Neutrophil killing of S. aureus; type: cell-based; conditions: murine PMNs, 40 μM
[15] = test system: neutrophils; type: cell-based, Murine
[16] = test system: S. aureus; assay: Nitric oxide stress of S. aureus; type: cell-based; conditions: simultaneous exposure to NO.
Procedure: as §2

[17] = Chemical stability, rule of five and solubility; conditions: free base and trifluoroacetate salt

Molecule: Oc1ccccc1-c1cc(-c2ccccc2F)[nH]n1 ['373]
- HssRS activation (XylE reporter activity) [1]: activates HssRS
- Pre-adaptation of S. aureus for heme toxicity [2]: pre-adapt S. aureus for heme toxicity
- Growth of ΔmenB (cannot respire, solely ferments) [3]: inhibits the growth of S. aureus ΔmenB, although to a lesser extent than '882
- Decrease in CFUs recovered from the livers versus vehicle [4]: 1 log
- Number of liver abscesses [4]: significant reduction in the number of liver abscesses
- Liver tissue level versus dose [5]: linear relationship between tissue level and dose

Molecule: Oc1c(-c2cc(-c3ccco3)[nH]n2)ccc2ccccc12 ['882]
- HssRS activation (XylE reporter activity) [1]: activates the hrtAB promoter in a dose-responsive manner
- HssRS activation (XylE reporter activity) ([1]; listed as '8882): most potent activator of HssRS
- HssRS activation in heme auxotroph ΔhemB [1]: does not activate HssRS in ΔhemB
- Pre-adaptation of S. aureus for heme toxicity [2]: pre-adapts S. aureus for heme toxicity
- Survival in heme after pre-treatment [6]: improved survival in heme
- Survival in heme after pre-treatment [7]: improved survival in heme
- Increase of intracellular heme versus non-exposed bacteria ([8]; commercial heme quantification kit (BioAssay systems)): approximately 10%
- Intracellular (endogenous) heme levels [8]: increase in a dose-responsive manner
- Intracellular abundance of IsdG ([9]; S. aureus constitutively expressing IsdG): increases the abundance of IsdG in a concentration-dependent fashion
- Stabilization of IsdG in ΔhemB ([9]; S. aureus ΔhemB): not stabilized
- Bacteriostatic or bacteriocidal (CFU input versus output) [3]: bacteriostatic to fermentatively growing staphylococci
- Concentration that halts S. aureus growth [3]: less than 5 μM
- Growth of ΔhemB (SCV deficient in heme biosynthesis) ([3]; S. aureus ΔhemB): sensitive to '882
- Growth of ΔmenB (cannot respire, solely ferments) [3]: more susceptible to '882 toxicity than wildtype; also recorded: bacteriostatic
- Growth of wildtype S. aureus grown anaerobically ([3]; anaerobic): growth was dramatically reduced
- Growth of S. aureus in combination with potassium cyanide (KCN) ([3]; combined with KCN, aerobic): growth is inhibited, even under aerobic conditions
- Growth of C. diphtheriae [10]: inhibits the growth of C. diphtheriae
- Glycolytic / fermentative activity (acidification, D-glucose consumption, lactate production) [11]: reduced glycolytic activity
- Glycolytic / fermentative activity (acidification, D-glucose consumption, lactate production) ([11]; listed as '8882): reduces the ability of S. aureus to ferment
- Gentamicin-resistant colonies, combination with gentamicin ([12]; combined with gentamicin): eliminated all detectable gentamicin-resistant colonies
- Reduction in bacterial viability, combination with gentamicin ([12]; combined with gentamicin): 5 log
- Viable and gentamicin-resistant bacteria, single agent [12]: did not affect the number of viable or gentamicin-resistant bacteria
- Antibiotic efficacy on co-treatment with kanamycin [13]: improves antibiotic efficacy in vitro
- Neutrophil-dependent killing of S. aureus [14]: improves neutrophil-dependent killing of S. aureus
- Neutrophil viability [15]: does not overtly affect neutrophil viability
- Antibacterial effect of simultaneous exposure with nitric oxide (NO.) [16]: more antibacterial than treatment with either molecule alone
- Chemical stability [17]: good chemical stability
- Rule of five violations [17]: no rule of five violations
- Solubility ([17]; DMSO and aqueous solution): good solubility in DMSO and aqueous solution

Molecule: O=CC[C@@H](O)[C@H](O)[C@H](O)CO [Compound 2dG, 2-deoxyglucose, reference compound]
- Intracellular (endogenous) heme levels [8]: reduces endogenous heme levels

Molecule: C=CC1=C(C)c2cc3[n-]c(cc4[n-]c(cc5nc(cc1n2)C(C)=C5C=C)c(C)c4CCC(=O)O)c(CCC(=O)O)c3C.[Fe+2] [heme, reference compound]
- HssRS activation in heme auxotroph ΔhemB [1]: activates HssRS in ΔhemB
- Survival in heme after pre-treatment [6]: improved survival in heme
- Survival in heme after pre-treatment [7]: improved survival in heme

Molecule: gentamicin [reference compound]
- Viable and gentamicin-resistant bacteria, single agent [12]: became resistant to gentamicin
